Like-named read-outs stand apart in the source and are kept apart here. Ends that are not written are not given here.
How the values were obtained:
B-LCL cells [1] = tested on: B-LCL cells
Method: (§1) The cytotoxic activity of CTLs on target cells was measured by ^51Cr-release assay. The ^51Cr-labeled target cells (1×10^4 cells/100 μL in total) were cocultured with different numbers of effector cells (100 μL) in a round-bottom 96-well plate. After culturing at 37° C. for 3-5 hours, the plate was centrifuged to separate the supernatant (100 μL) which was subjected to the measurement of γ ray. Specific cytotoxicity (% specific lysis) was calculated as follows: % specific lysis=(cpm experimental release−cpm spontaneous release)/(cpm maximal release−cpm spontaneous release)×100
One week later, PBMCs were pulsed with the peptide of SEQ ID NO: 8, and used as stimulators in the stimulation. The stimulation was conducted every one week 3 times in total. After 3 times of stimulation, CD8-positive cells were enriched by negative selection method. Further, stimulation with the peptide of SEQ ID NO: 8 was conducted 2 times. […] Experiments were carried out in the same manner as above using a peptide of SEQ ID NO: 9 and a peptide of SEQ ID NO: 2.

B-LCL cells [2] = tested on: B-LCL cells; remark: listed apart in the source
Method: as §1

Method for JY cell line: (§2) After obtaining informed-consent, blood was collected from HLA-A*0201-positive healthy subjects and peripheral blood mononuclear cells (PBMCs) were isolated using Ficoll-Hypaque separation solution. HLA-A*0201-positive T2 cell lines incapable of presenting endogenous peptides to HLA due to deficit in TAP gene (J. Immunol. 150: 1763, 1993) were pulsed with the peptide of SEQ ID NO: 3 at 20 μM for 2 hours, then radiated (7500 cGy), and co-cultured with PBMCs at the cell number ratio of 1:1. As the culture solution, a complete medium composed of 45% AIM-V medium, 45% RPMI1640 medium, 10% inactivated human serum, 0.1 mM MEM non-essential amino acids, 100 ng/mL streptomycin, 100 IU/mL penicillin and 25 ng/mL 2-mercaptoethanol was used. Seven days later, the second-time stimulation was conducted in a similar manner, and thereto was added 25 IU/mL of IL-2 (Shionogi & Co., Ltd) on the next day. Stimulation was conducted five times in total, and effector cells obtained after 5 days from the last stimulation were used in the measurement of cytotoxicity.
(§3) The cytotoxic activity of CTLs on target cells was measured by ^51Cr-release assay. […] Specific cytotoxicity (% specific lysis) was calculated as follows: % specific lysis=(cpm experimental release−cpm spontaneous release)/(cpm maximal release−cpm spontaneous release)×100
Method for T2 cells: After obtaining informed-consent, blood was collected from HLA-A*0201-positive healthy subjects and peripheral blood mononuclear cells (PBMCs) were isolated using Ficoll-Hypaque separation solution. HLA-A*0201-positive T2 cell lines incapable of presenting endogenous peptides to HLA due to deficit in TAP gene (J. Immunol. 150: 1763, 1993) were pulsed with the peptide of SEQ ID NO: 3 at 20 μM for 2 hours, then radiated (7500 cGy), and co-cultured with PBMCs at the cell number ratio of 1:1. […]
as §3
The “spontaneous release” and the “maximal release” were measured in the supernatant obtained from the culture of target cells and that obtained from the culture of target cells treated with 1% Triton X-100 solution, respectively. […] The cytotoxic activity was measured using, as target cells, T2 cells pulsed with the same peptide as used in the stimulation or T2 cells not pulsed with the peptide.
Method for TF-1 cell line: as §2, §3

Sequence: VTFDGTPSY [SEQ ID NO: 8]
- cytotoxic activity (% specific lysis) of CTLs induced by stimulation with the peptide (B-LCL cells [1]): more potent cytotoxic activity on B-LCL cells pulsed with the peptide than on B-LCL cells not-pulsed with the peptide

Sequence: QGSLGEQQY [SEQ ID NO: 9]
- cytotoxic activity (% specific lysis) of CTLs induced by stimulation with the peptide (B-LCL cells [1]): more potent cytotoxic activity on B-LCL cells pulsed with the peptide than on B-LCL cells not-pulsed with the peptide

Sequence: DLNALLPAV [SEQ ID NO: 3, Asp Leu Asn Ala Leu Leu Pro Ala Val]
- cytotoxic activity of CTLs induced by stimulation with the peptide on JY cells (JY cell line): not JY cells
- cytotoxic activity of CTLs induced by stimulation with the peptide on TF-1 cells (TF-1 cell line): killed TF-1 cells
- cytotoxic activity (% specific lysis) of CTLs induced by stimulation with the peptide (T2 cells): more potent cytotoxic activity on T2 cells pulsed with the peptide than on T2 cells not-pulsed with the peptide

Sequence: DQLKRHQRR [SEQ ID NO: 2]
- cytotoxic activity (% specific lysis) of CTLs induced by stimulation with the peptide (B-LCL cells [2]): more potent cytotoxic activity on B-LCL cells pulsed with the peptide than on B-LCL cells not-pulsed with the peptide
- cytotoxic activity (% specific lysis) of CTLs induced by stimulation with the peptide (B-LCL cells [1]): more potent cytotoxic activity on B-LCL cells pulsed with the peptide than on B-LCL cells not-pulsed with the peptide

Reference: US8388975B2, “Cancer antigen peptides derived from WT1” (International Institute of Cancer Immunology, Inc., priority 2004, dated 2013)
